Columns and labels:
[1] = tested on: Ilyonectria destructans; assay: N-Acylation of compound was determined after 22 hr incubation at 250 mg/mL concentration using Cylindrocarpon radicicola resting cells and residual amine was evaluated
[2] = tested on: Ilyonectria destructans; assay: N-Acylation of amine was determined after 22 hr incubation at 250 mg/mL concentration using Cylindrocarpon radicicola resting cells to amide expressed as enantioselectivity coefficient (amine/amide): 52/48
[3] = tested on: Ilyonectria destructans; assay: N-Acylation of amine was determined after 22 hr incubation at 250 mg/mL concentration using Cylindrocarpon radicicola resting cells to amide expressed as enantioselectivity coefficient (amine/amide): 48/52
[4] = tested on: Ilyonectria destructans; assay: N-Acylation of amine was determined after 22 hr incubation at 250 mg/mL concentration using Cylindrocarpon radicicola resting cells to amide expressed as enantioselectivity coefficient (amine/amide): 65/35
[5] = tested on: Ilyonectria destructans; assay: N-Acylation of amine was determined after 22 hr incubation at 250 mg/mL concentration using Cylindrocarpon radicicola resting cells to amide expressed as enantioselectivity coefficient (amine/amide): 59/41
[6] = tested on: Ilyonectria destructans; assay: N-Acylation of amine was determined after 22 hr incubation at 250 mg/mL concentration using Cylindrocarpon radicicola resting cells to amide expressed as enantioselectivity coefficient (amine/amide): 53/47

SMILES | Residual amine (ee) [1] [%] | further results
NC1CCc2ccccc21 (stereo not given) | 0 | Enantioselectivity coefficient [2]: 52
NC(Cc1ccccc1)c1ccccc1 (stereo not given) | 80 | Enantioselectivity coefficient [3]: 48
CC(CN)c1ccccc1 (stereo not given) | 0 | Enantioselectivity coefficient [4]: 65
NC(c1ccccc1)c1ccc(Cl)cc1 (stereo not given) | 0 | Enantioselectivity coefficient [5]: 59
CC(N)COc1ccccc1 (stereo not given) | 95 | Enantioselectivity coefficient [6]: 53

From ChEMBL document CHEMBL1127217, “Enantioselective acetylation of primary amines by Cylindrocarpon radicicola” (Bioorg Med Chem Lett, 1993)
